Test results: patent US6908935B2, “Calcium receptor modulating agents” (Amgen Inc., priority 2002, dated 2005)

Biological target: T1, human parathyroid cell Ca^2+ receptor (hPCaR) (Homo sapiens, UniProt P41180)
T1 construct: expressed in transfected cells
T1 sequence (P41180 20-1078): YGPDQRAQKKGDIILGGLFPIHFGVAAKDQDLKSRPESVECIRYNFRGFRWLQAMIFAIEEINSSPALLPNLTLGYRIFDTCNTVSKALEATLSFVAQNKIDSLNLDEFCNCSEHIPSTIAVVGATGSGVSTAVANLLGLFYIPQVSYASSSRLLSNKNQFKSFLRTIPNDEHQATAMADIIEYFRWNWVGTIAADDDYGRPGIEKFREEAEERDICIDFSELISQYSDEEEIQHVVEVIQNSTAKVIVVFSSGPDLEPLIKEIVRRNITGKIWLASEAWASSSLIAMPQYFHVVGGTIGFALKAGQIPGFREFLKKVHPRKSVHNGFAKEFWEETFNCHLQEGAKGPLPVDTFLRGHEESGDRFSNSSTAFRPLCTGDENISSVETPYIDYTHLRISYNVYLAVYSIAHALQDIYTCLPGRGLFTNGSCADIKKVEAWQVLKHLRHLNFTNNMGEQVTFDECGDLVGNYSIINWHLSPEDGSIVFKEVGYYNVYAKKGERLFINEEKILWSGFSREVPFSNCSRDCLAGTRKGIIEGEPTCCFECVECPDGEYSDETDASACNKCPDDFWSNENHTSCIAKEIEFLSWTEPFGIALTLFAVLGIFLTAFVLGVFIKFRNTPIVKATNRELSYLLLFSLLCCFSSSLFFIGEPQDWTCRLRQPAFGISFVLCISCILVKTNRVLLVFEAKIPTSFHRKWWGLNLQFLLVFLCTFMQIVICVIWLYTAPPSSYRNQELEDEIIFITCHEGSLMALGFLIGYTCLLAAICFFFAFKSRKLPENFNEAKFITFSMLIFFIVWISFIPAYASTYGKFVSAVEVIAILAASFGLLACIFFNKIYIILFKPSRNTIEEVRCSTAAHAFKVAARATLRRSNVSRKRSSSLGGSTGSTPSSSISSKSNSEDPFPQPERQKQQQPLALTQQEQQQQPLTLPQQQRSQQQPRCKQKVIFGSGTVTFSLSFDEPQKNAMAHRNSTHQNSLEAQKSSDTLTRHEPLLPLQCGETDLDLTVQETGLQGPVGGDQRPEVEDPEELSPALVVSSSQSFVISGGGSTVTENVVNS
Assay: [Ca2+]i measurement with fluo-3 in HEK 293 4.0-7 cells stably transfected with hPCaR
Assay type: cell-based
Settings: fluo-3 fluorescence (485/530 nm), effect on [Ca^2+]i
Protocol: The activities of the compounds of the present invention on calcium receptors were measured. In one embodiment, the measurement was performed in accordance with the method described in Example 4 of Nemeth et al., PCT/US95/13704 (International Publication No. WO96/12697) herein incorporated by reference.
A 4.0-kb NotI-HindIII fragment of the human parathyroid cell Ca^2+ receptor (hPCaR) cDNA was subcloned into the mammalian expression vector pCEP4 (Invitrogen) containing the hygromycin-resistant gene as a selectable marker. This plasmid was transfected into HEK 293 cells by calcium phosphate precipitation. Transfected cells were grown in Dulbecco's modified Eagle's medium containing 10% fetal bovine serum and hygromycin (200 μg/mL). Hygromycin-resistant colonies were subcloned and assayed for hPCaR mRNA by solution hybridization using a ^32P-labeled RNA probe complementary to the (4.0 kb) hPCaR sequence (Garrett, et al., J. Biol. Chem. 270, 12919-12925 (1995)). Clone 7 was used to assess the effects of compounds on [Ca^2+]i. This stably transfected cell line is termed HEK 293 4.0-7. For measurements of [Ca^2+]i, the cells were recovered from tissue culture flasks by brief treatment with 0.02% EDTA and then washed and resuspended in PCB containing 1 mM CaCl2 and 0.1% Bovine Serum Albumin (“BSA”). The cells were loaded with fluo-3 by incubation for 30 min at 37° C., with parathyroid cell buffer (126 mM NaCl, 4 mM KCl, 1 mM MgSO4, 0.7 mM K2HPO/KH2PO4, 20 mM HEPES.NaOH (pH 7.45)) containing 0.5% BSA in lmM CaCl2 and 2 μM fluo-3 acetoxymethyl ester. The cells were subsequently washed, each test compound was added to the cells and the fluorescence was recorded by using excitation and emission wavelengths of 485 and 530 nm, respectively.

Work on `COc1cccc([C@@H](C)NCc2ccc(OC)c(-c3cccs3)c2)c1` [(1R)-1-(3-(methyloxy)phenyl)-N-((4-(methyloxy)-3-(2-thienyl)phenyl)methyl)ethanamine] yielded an EC50 of at most 10 µM.

`COc1cccc([C@@H](C)NCc2ccc(OC)c(-c3cccnc3)c2)c1` [(1R)-1-(3-(methyloxy)phenyl)-N-((4-(methyloxy)-3-(3-pyridinyl)phenyl)methyl)ethanamine] was tested, and the EC50 was at most 10 µM.

Compound `COc1cccc([C@@H](C)NCc2ccc(OC)c(-c3ccsc3)c2)c1` [(1R)-1-(3-(methyloxy)phenyl)-N-((4-(methyloxy)-3-(3-thienyl)phenyl)methyl)ethanamine] has an EC50 of at most 10 µM.

`COc1cccc([C@@H](C)NCc2ccc(OC)c(-c3nnc(C(F)(F)F)o3)c2)c1` [(1R)-1-(3-(methyloxy)phenyl)-N-((4-(methyloxy)-3-(5-(trifluoromethyl)-1,3,4oxadiazol-2-yl)phenyl)methyl)ethanamine] gave an EC50 of at most 10 µM.

With `COc1cccc([C@@H](C)NCc2ccc(OC)c(-c3cncnc3)c2)c1` [(1R)-1-(3-(methyloxy)phenyl)-N-((4-(methyloxy)-3-(5-pyrimidinyl)phenyl)methyl)ethanamine] the EC50 was at most 10 µM.

Work on `COc1cccc([C@@H](C)NCc2ccc(OC)c(-c3ccc(OCC(F)(F)F)nc3)c2)c1` [(1R)-1-(3-(methyloxy)phenyl)-N-((4-(methyloxy)-3-(6-((2,2,2-trifluoroethyl)oxy)-3-pyridinyl)phenyl)methyl)ethanamine] yielded an EC50 of at most 10 µM.

Work on `COc1cccc([C@@H](C)NCc2ccc(OC)c(-c3ccc(C(F)(F)F)nc3)c2)c1` [(1R)-1-(3-(methyloxy)phenyl)-N-((4-(methyloxy)-3-(6-(trifluoromethyl)-3-pyridinyl)phenyl)methyl)ethanamine] yielded an EC50 of at most 10 µM.

`COc1cccc([C@@H](C)NCc2ccc(OC)c(-c3ccc4ncccc4c3)c2)c1` [(1R)-1-(3-(methyloxy)phenyl)-N-((4-(methyloxy)-3-(6-quinolinyl)phenyl)methyl)ethanamine] gave an EC50 of at most 10 µM.

`COc1cccc([C@@H](C)NCc2ccc(OC)c(-c3ccc4nccnc4c3)c2)c1` [(1R)-1-(3-(methyloxy)phenyl)-N-((4-(methyloxy)-3-(6-quinoxalinyl)phenyl)methyl)ethanamine] gave an EC50 of at most 10 µM.

In the case of `COc1cccc([C@@H](C)NCc2ccc(OC)c(-c3cccc(OC(F)(F)F)c3)c2)c1` [(1R)-1-(3-(methyloxy)phenyl)-N-((6-(methyloxy)-3′-((trifluoromethyl)oxy)-1,1′-biphenyl-3-yl)methyl)ethanamine], the EC50 is reported as at most 10 µM.

With `COc1cccc([C@@H](C)NCc2ccc(OC)c(-c3cccc(C(F)(F)F)c3)c2)c1` [(1R)-1-(3-(methyloxy)phenyl)-N-((6-(methyloxy)-3′-(trifluoromethyl)-1,1′-biphenyl-3-yl)methyl)ethanamine] the EC50 was at most 10 µM.

Work on `COc1cccc([C@@H](C)NCc2ccc(OC)c(-c3ccc(OC(F)(F)F)cc3)c2)c1` [(1R)-1-(3-(methyloxy)phenyl)-N-((6-(methyloxy)-4′-((trifluoromethyl)oxy)-1,1′-biphenyl-3-yl)methyl)ethanamine] yielded an EC50 of at most 10 µM.

`COc1cccc([C@@H](C)NCc2ccc(OC)c(-c3ccc(C(F)(F)F)cc3)c2)c1` [(1R)-1-(3-(methyloxy)phenyl)-N-((6-(methyloxy)-4′-(trifluoromethyl)-1,1′-biphenyl-3-yl)methyl)ethanamine] gave an EC50 of at most 10 µM.

With `COc1ccc(CN[C@H](C)c2cccc(Cl)c2)cc1-c1ccccc1` [(1R)-1-(3-chlorophenyl)-N-((6-(methyloxy)-1,1′-biphenyl-3-yl)methyl)ethanamine] the EC50 was at most 10 µM.

Work on `COc1ccc(CN[C@H](C)c2cccc(Cl)c2)cc1-c1ccc(C(F)(F)F)cc1` [(1R)-1-(3-chlorophenyl)-N-((6-(methyloxy)-4′-(trifluoromethyl)-1,1′-biphenyl-3-yl)methyl)ethanamine] yielded an EC50 of at most 10 µM.

`COc1ccc(CN[C@H](C)c2cccc(F)c2)cc1-c1ccccc1` [(1R)-1-(3-fluorophenyl)-N-((6-(methyloxy)-1,1′-biphenyl-3-yl)methyl)ethanamine] was tested, and the EC50 was at most 10 µM.

For `COc1ccc(CN[C@H](C)c2cccc(F)c2)cc1-c1ccc(S(C)(=O)=O)cc1` [(1R)-1-(3-fluorophenyl)-N-((6-(methyloxy)-4′-(methylsulfonyl)-1,1′-biphenyl-3-yl)methyl)ethanamine], the EC50 was at most 10 µM.

`COc1ccc(CN[C@H](C)c2cccc(F)c2)cc1-c1ccc(C(F)(F)F)cc1` [(1R)-1-(3-fluorophenyl)-N-((6-(methyloxy)-4′-(trifluoromethyl)-1,1′-biphenyl-3-yl)methyl)ethanamine] showed an EC50 of at most 10 µM.

`COc1ccc([C@@H](C)NCc2cccc(-c3cnccn3)c2)cc1` [(1R)-1-(4-(methyloxy)phenyl)-N-((3-(2-pyrazinyl)phenyl)methyl)ethanamine] was tested, and the EC50 was at most 10 µM.

With `COc1ccc([C@@H](C)NCc2cccc(-c3ccccn3)c2)cc1` [(1R)-1-(4-(methyloxy)phenyl)-N-((3-(2-pyridinyl)phenyl)methyl)ethanamine] the EC50 was at most 10 µM.

`COc1ccc([C@@H](C)NCc2cccc(-c3ccc(OC)nn3)c2)cc1` [(1R)-1-(4-(methyloxy)phenyl)-N-((3-(6-(methyloxy)-3-pyridazinyl)phenyl)methyl)ethanamine] gave an EC50 of at most 10 µM.

`COc1ccc([C@@H](C)NCc2cccc(-c3ccc(C)nc3)c2)cc1` [(1R)-1-(4-(methyloxy)phenyl)-N-((3-(6-methyl-3-yridinyl)phenyl)methyl)ethanamine] showed an EC50 of at most 10 µM.

Compound `COc1ccc([C@@H](C)NCc2ccc(OC)c(-c3nccs3)c2)cc1` [(1R)-1-(4-(methyloxy)phenyl)-N-((4-(methyloxy)-3-(1,3-thiazol-2-yl)phenyl)methyl)ethanamine] has an EC50 of at most 10 µM.

With `COc1ccc([C@@H](C)NCc2ccc(OC)c(-c3cnccn3)c2)cc1` [(1R)-1-(4-(methyloxy)phenyl)-N-((4-(methyloxy)-3-(2-pyrazinyl)phenyl)methyl)ethanamine] the EC50 was at most 10 µM.

For `COc1ccc([C@@H](C)NCc2ccc(OC)c(-c3cccnc3)c2)cc1` [(1R)-1-(4-(methyloxy)phenyl)-N-((4-(methyloxy)-3-(3-pyridinyl)phenyl)methyl)ethanamine], the EC50 was at most 10 µM.

Work on `COc1ccc([C@@H](C)NCc2ccc(OC)c(-c3ccsc3)c2)cc1` [(1R)-1-(4-(methyloxy)phenyl)-N-((4-(methyloxy)-3-(3-thienyl)phenyl)methyl)ethanamine] yielded an EC50 of at most 10 µM.

Compound `COc1ccc([C@@H](C)NCc2ccc(OC)c(-c3cncnc3)c2)cc1` [(1R)-1-(4-(methyloxy)phenyl)-N-((4-(methyloxy)-3-(5-pyrimidinyl)phenyl)methyl)ethanamine] has an EC50 of at most 10 µM.

`Cc1ccc([C@@H](C)NCc2cccc(-c3ccccn3)c2)cc1` [(1R)-1-(4-methylphenyl)-N-((3-(2-pyridinyl)phenyl)methyl)ethanamine] was tested, and the EC50 was at most 10 µM.

`Cc1ccc([C@@H](C)NCc2cccc(-c3ccc(C)nc3)c2)cc1` [(1R)-1-(4-methylphenyl)-N-((3-(6-methyl-3-pyridinyl)phenyl)methyl)ethanamine] was tested, and the EC50 was at most 10 µM.

`C[C@@H](NCc1cccc(-c2cnccn2)c1)c1ccccc1` [(1R)-1-phenyl-N-((3-(2-pyrazinyl)phenyl)methyl)ethanamine] showed an EC50 of at most 10 µM.

Compound `C[C@@H](NCc1cccc(-c2ccccn2)c1)c1ccccc1` [(1R)-1-phenyl-N-((3-(2-pyridinyl)phenyl)methyl)ethanamine] has an EC50 of at most 10 µM.
